# Literature values as cited in PMC7395068, “The evolution of strategies to minimise the risk of human drug-induced liver injury (DILI) in drug discovery and development” (Archives of Toxicology, 2020).
# Where two headings read alike, the source gives them in different places.
# Legend:
# hLiMTs = settings: In vitro Assay; ref Proctor 2017; cited from earlier work
# [1] = cited from earlier work
# [2] = system: primary human hepatocytes, NIH3T3 fibroblasts, BSEP, CYP3A4; settings: cited from earlier work
# [3] = ref Chen 2016; cited from earlier work
# PHH spheroids = settings: In vitro Assay; ref Vorrink 2018; cited from earlier work
# [4] = system: THLE-Null and THLE-3A4 cells; settings: In vitro Assay; ref Gustafsson 2014; cited from earlier work
# [5] = system: HepG2 C3A spheroid, BSEP, Glu/Gal in HepG2 cells, bioactivation; settings: cited from earlier work
# PHH = settings: In vitro Assay; ref Proctor 2017; cited from earlier work
# [6] = system: HepG2 cells, primary human hepatocytes; settings: cited from earlier work
# human hepatocytes = settings: cited from earlier work
# rBsep = settings: In vitro Assay; ref Dawson 2012; cited from earlier work
# [7] = system: THLE or HepG2 cells, isolated mitochondria, BSEP; settings: cited from earlier work
# [8] = In vitro Assay, ref Schadt 2015
# [9] = In vitro Assay, ref Williams 2019
# [10] = In vitro Assay, ref Garside 2014
Structure (SMILES),In vivo DILI ([1]; ref Garside 2014),In vivo DILI ([1]; ref Gustafsson 2014),In vivo DILI ([1]; ref Williams 2019),"DILI +VE (5-8), DILI -VE (-4) [3]",DILI severity category [3],THLE-Null [4],"Bayesian Machine Learning [5, 9]","Cluster 1-6 +VE Assay [6, 10]",THLE-Null/3A4 [4],also measured
Cc1ccc(-c2cc(C(F)(F)F)nn2-c2ccc(S(N)(=O)=O)cc2)cc1 [celecoxib],+VE,+VE,+VE,+VE,vLess-DILI-Concern,+VE,+VE,+VE,–,"hLiMTs ATP <100uM (hLiMTs): +VE (IC50 threshold of 100 µM); In vivo DILI ([1]; ref Proctor 2017): +VE; In vivo DILI ([1]; ref Schadt 2015): +VE; In vivo DILI ([1]; ref Vorrink 2018): +VE; Cellular toxicity (3T3 cells) [2, 8]: +VE; GSH adduct HML [2, 8]: -VE; Hepatocyte cellular toxicity [2, 8]: -VE; MitoTox 3T3 [2, 8]: -VE; TDI CYP3A4 [2, 8]: -VE; hBSEP inhibition [2, 8]: -VE; hLiMTs ATP <20 x Cmax (PHH spheroids): +VE (IC20 < 20 × Cmax.tot cut-off); PHH ATP <100uM (PHH): +VE (IC50 threshold of 100 µM)"
CN(C)CCCN1c2ccccc2CCc2ccc(Cl)cc21 [clomipramine],–,–,–,–,–,–,+VE,+VE,–,"Structural based (HCI) (human hepatocytes; In vitro Assay, ref Xu 2008): -VE"
O=C(O)Cc1csc(-c2ccc(Cl)cc2)n1 [fenclozic acid],+VE,+VE,+VE,+VE,vMost-DILI-Concern,-VE,+VE,+VE,-VE,In vivo DILI ([1]; ref Dawson 2012): +VE; Inhibition of rBsep cutoff<1& cmax u>.2 (rBsep): -VE; Inhibition of rBsep cutoff<3 (rBsep): -VE
CC(C)Cc1ccc(CC(=O)O)cc1 [ibufenac],+VE,–,+VE,+VE,vMost-DILI-Concern,–,+VE,+VE,–,"In vivo DILI ([1]; ref Schadt 2015): +VE; Cellular toxicity (3T3 cells) [2, 8]: -VE; Combined Assay [2, 8]: +VE; GSH adduct HML [2, 8]: +VE; Hepatocyte cellular toxicity [2, 8]: -VE; MitoTox 3T3 [2, 8]: -VE; TDI CYP3A4 [2, 8]: -VE; hBSEP inhibition [2, 8]: -VE"
CC(C(=O)O)c1ccc(C(=O)c2cccs2)cc1 (centres unmarked) [suprofen],+VE,+VE,+VE,–,–,-VE,–,-VE,-VE,Bayesian Machine Learning ([5]; ref Williams 2019): +VE
O=C(O)COc1ccc(C(=O)c2cccs2)c(Cl)c1Cl [tienilic acid],+VE,–,+VE,+VE,vMost-DILI-Concern,–,+VE,+VE,–,hLiMTs ATP <100uM (hLiMTs): -VE; In vivo DILI ([1]; […]): +VE; In vivo DILI ([1]; ref Proctor 2017): +VE; PHH ATP <100uM (PHH): -VE
Cc1ccc(C(=O)c2ccc(CC(=O)O)n2C)cc1 [tolmetin],+VE,+VE,+VE,+VE,vLess-DILI-Concern,-VE,+VE,+VE,-VE,"In vivo DILI ([1]; ref Xu 2008): +VE; Structural based (HCI) (human hepatocytes; In vitro Assay, ref Xu 2008): +VE"
CC(=O)CC(c1ccccc1)c1c(O)c2ccccc2oc1=O (centres unmarked) [warfarin],–,–,–,–,–,–,–,–,–,Cellular toxicity (3T3 cells) [2]: -VE; Combined Assay [2]: -VE; GSH adduct HML [2]: -VE; Hepatocyte cellular toxicity [2]: -VE; MitoTox 3T3 [2]: -VE; TDI CYP3A4 [2]: -VE; hBSEP inhibition [2]: -VE; Partition Hybrid HRM Score [7]: +VE; Ro2 Hybrid HRM Score [7]: -VE; Bayesian Machine Learning [5]: +VE; Cluster 1-6 +VE Assay [6]: -VE; Structural based (HCI) (human hepatocytes): -VE
